“And” between values parts separate entries of the source, which are not always exact repeats. Equal values may be shown once.
Key:
Format in all cases: cell-based, Acinetobacter baumannii
A. baumannii AB5075 [1] = assay: In vitro passaging, emergence of resistance; settings: for OD600: 8 ug/mL
Protocol: Log-phase cultures (OD600 = 0.5, ~10^8 CFU/mL) of A. baumannii AB5075 were inoculated (1:10, v/v) in 200 μL fresh CaMHB (cation-adjusted Mueller–Hinton broth) containing 2, 8 and 16 μg/mL polymyxin B, colistin, F287, and F365 in a 96-well microplate with 4 biological replicates. The cultures were incubated at 37 °C for 12 h before the next dilution (1:10, v/v) with fresh CaMHB. Successive subculturing was conducted for 7 days.

A. baumannii FADDI-AB034 = settings: carbapenem-resistant isolate
Summary of the method: (§1)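 Read-out is the minimum inhibitory concentration, obtained by serially diluting compound in cation-adjusted Mueller–Hinton medium and exposing each isolate in microdilution format.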

A. baumannii ATCC 19606 = system: A. baumannii ATCC 19606
Summary of the method: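 Compounds were serially diluted in CaMHB, bacteria were added, and the lowest inhibitory concentration was recorded after broth microdilution testing.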

A. baumannii FADDI-AB030 = settings: carbapenem-resistant isolate
Summary of the method: as §1

A. baumannii AB5075 [2] = system: A. baumannii AB5075
Summary of the method: as §1

A. baumannii AB5075 [3] = assay: Transcriptomic analysis (RNA-Seq) of bacteria; settings: for logFC (Differential gene expression for all genes), Geneid ABUW_RS00005 / logFC (Differential gene expression for all genes), Geneid ABUW_RS00020 / logFC (Fold change), gene ABUW_RS00010 / logFC (Fold change), gene ABUW_RS00030 / logFC (Fold change), gene ABUW_RS00035 / logFC (Fold change), gene recF (ABUW_RS00015) / 4h_1h logFC (Differential gene expression for all genes), Geneid ABUW_RS00005 / 4h_1h logFC (Differential gene expression for all genes), Geneid ABUW_RS00010 / 4h_1h logFC (Differential gene expression for all genes), Geneid ABUW_RS00015 / 4h_1h logFC (Differential gene expression for all genes), Geneid ABUW_RS00020: RNA-Seq A. baumannii AB5075; for log2FC, gene ABUW_RS01945 (acyl-CoA thioesterase II) / log2FC, gene ABUW_RS02545 (acyl-CoA thioesterase) / log2FC, gene ABUW_RS05045 (acyl-CoA thioesterase) / log2FC, gene ABUW_RS17575 (acyl-CoA thioesterase): pathway Fatty Acid and Lipid Degradation; for 4h_1h logFC (Differential gene expression for all genes), Geneid ABUW_RS00005 / 4h_1h logFC (Differential gene expression for all genes), Geneid ABUW_RS00010 / 4h_1h logFC (Differential gene expression for all genes), Geneid ABUW_RS00015 / 4h_1h logFC (Differential gene expression for all genes), Geneid ABUW_RS00020: 4h vs 1h
Protocol: Mid-log phase A. baumannii AB5075 (~10^8 CFU/mL) in CaMHB was treated with colistin (2 and 8 μg/mL), F287, F319 or F365 (equimolar concentration to colistin) for 1 and 4 h. Total RNA was extracted using TRIzol Reagent (Invitrogen, USA) and RNeasy Mini Kit (Qiagen, Germany). Quality check of RNA samples was conducted with NanoDrop (Thermo Fisher Scientific, USA) and Agilent 2100 Bioanalyzer (Agilent Technologies, USA) for sequencing (150 bp paired-end) at Genewiz (Shanghai, China). Raw reads were aligned to A. baumannii AB5075 genome (GCF_000963815, https://www.ncbi.nlm.nih.gov/assembly/GCF_000963815.1/) using subread-aligner (subread 2.0.1) and summarized by featureCounts (subread 2.0.1). Principal component analysis (PCA) was conducted with mixOmics 6.14.1 in R. Differentially expressed genes were determined using limma 3.46.0 with a combination of fold change ≥ 2 and false discovery rate (FDR, by Benjamini–Hochberg algorithm) adjusted P-value ≤ 0.05 (n = 3). Enrichment analysis of gene differential expression in AB5075 was conducted using BioCyc (A. baumannii AB5075, version 25.5). UpSetR 1.4.0, ComplexHeatmap 2.6.2 and circlize 0.4.13 were used for data visualization. Raw data were deposited in Short Reads Archive (SRA) database under accession numbers SRR15235669-SRR15235725.

Substance: Colistin [reference compound]
- regrowth observed from day (A. baumannii AB5075 [1]): 4 days
- OD600 (A. baumannii AB5075 [1]; time 0 h, passage 0, replicates rep1-rep4, raw OD600 (blank OD600 0.125333)): 0.152 and 0.143 and 0.147 and 0.146
- OD600 (A. baumannii AB5075 [1]; time 12 h, passage 1, replicates rep1-rep4, raw OD600 (blank OD600 0.114667)): 0.136 and 0.134 and 0.13
- OD600 (A. baumannii AB5075 [1]; time 24 h, passage 2, replicates rep1-rep4, raw OD600 (blank OD600 0.0956667)): 0.095 and 0.089 and 0.087 and 0.091
- OD600 (A. baumannii AB5075 [1]; time 36 h, passage 3, replicates rep1-rep4, raw OD600 (blank OD600 0.088)): 0.088 and 0.087 and 0.085 and 0.091
- OD600 (A. baumannii AB5075 [1]; time 48 h, passage 4, replicates rep1-rep4, raw OD600 (blank OD600 0.104667)): 0.095 and 0.093
- OD600 (A. baumannii AB5075 [1]; time 60 h, passage 5, replicates rep1-rep4, raw OD600 (blank OD600 0.122333)): 0.125 and 0.117 and 0.115 and 0.107
- OD600 (A. baumannii AB5075 [1]; time 72 h, passage 6, replicates rep1-rep4, raw OD600 (blank OD600 0.095)): 0.14 and 0.126 and 0.15
- OD600 (A. baumannii AB5075 [1]; time 84 h, passage 7, replicates rep1-rep4, raw OD600 (blank OD600 0.091)): 0.196 and 0.173 and 0.191 and 0.238
- OD600 (A. baumannii AB5075 [1]; time 96 h, passage 8, replicates rep1-rep4, raw OD600 (blank OD600 0.0953333)): 0.224 and 0.238 and 0.275 and 0.393
- OD600 (A. baumannii AB5075 [1]; time 108 h, passage 9, replicates rep1-rep4, raw OD600 (blank OD600 0.100667)): 0.309 and 0.315 and 0.31 and 0.392
- OD600 (A. baumannii AB5075 [1]; time 120 h, passage 10, replicates rep1-rep4, raw OD600 (blank OD600 0.0983333)): 0.387 and 0.364 and 0.444 and 0.49
- OD600 (A. baumannii AB5075 [1]; time 132 h, passage 11, replicates rep1-rep4, raw OD600 (blank OD600 0.0843333)): 0.344 and 0.355 and 0.395 and 0.414
- OD600 (A. baumannii AB5075 [1]; time 144 h, passage 12, replicates rep1-rep4, raw OD600 (blank OD600 0.091)): 0.477 and 0.464 and 0.465 and 0.416
- OD600 (A. baumannii AB5075 [1]; time 156 h, passage 13, replicates rep1-rep4, raw OD600 (blank OD600 0.129)): 0.339 and 0.382 and 0.394
- OD600 (A. baumannii AB5075 [1]; time 168 h, passage 14, replicates rep1-rep4, raw OD600 (blank OD600 0.101)): 0.344 and 0.379 and 0.374 and 0.394
- time to emergence of resistance (A. baumannii AB5075 [1]; 4× MIC, 7-day passaging): ≤ 3 days
- growth over 7 days (A. baumannii AB5075 [1]; 32× MIC): No growth
- MIC A. baumannii FADDI-AB034 (A. baumannii FADDI-AB034): 0.5 µg/mL
- MIC A. baumannii ATCC 19606 (A. baumannii ATCC 19606): 1 µg/mL
- MIC A. baumannii FADDI-AB030 (A. baumannii FADDI-AB030): 0.5 µg/mL
- MIC A. baumannii AB5075 (A. baumannii AB5075 [2]): 0.5 µg/mL
- logFC (Differential gene expression for all genes), Geneid ABUW_RS00005 (A. baumannii AB5075 [3]; H vs Cont, 1h): -0.1415
- logFC (Differential gene expression for all genes), Geneid ABUW_RS00020 (A. baumannii AB5075 [3]; H vs Cont, 1h): 0.3148
- logFC (Fold change), gene ABUW_RS00010 (A. baumannii AB5075 [3]; H vs Cont, 1h): 0.4448
- logFC (Fold change), gene ABUW_RS00030 (A. baumannii AB5075 [3]; H vs Cont, 1h): -0.4924
- logFC (Fold change), gene ABUW_RS00035 (A. baumannii AB5075 [3]; H vs Cont, 1h): 1.135
- logFC (Fold change), gene recF (ABUW_RS00015) (A. baumannii AB5075 [3]; H vs Cont, 1h): -0.2294
- log2FC, gene ABUW_RS01945 (acyl-CoA thioesterase II) (A. baumannii AB5075 [3]; H vs Cont, 1h): 0.3504
- log2FC, gene ABUW_RS02545 (acyl-CoA thioesterase) (A. baumannii AB5075 [3]; H vs Cont, 1h): 1.4185
- log2FC, gene ABUW_RS05045 (acyl-CoA thioesterase) (A. baumannii AB5075 [3]; H vs Cont, 1h): 0.5564
- log2FC, gene ABUW_RS17575 (acyl-CoA thioesterase) (A. baumannii AB5075 [3]; H vs Cont, 1h): -1.353
- logFC (Differential gene expression for all genes), Geneid ABUW_RS00005 (A. baumannii AB5075 [3]; H vs Cont, 4h): -0.09217
- logFC (Differential gene expression for all genes), Geneid ABUW_RS00020 (A. baumannii AB5075 [3]; H vs Cont, 4h): -0.1513
- logFC (Fold change), gene ABUW_RS00010 (A. baumannii AB5075 [3]; H vs Cont, 4h): 1.069
- logFC (Fold change), gene ABUW_RS00030 (A. baumannii AB5075 [3]; H vs Cont, 4h): -0.5349
- logFC (Fold change), gene ABUW_RS00035 (A. baumannii AB5075 [3]; H vs Cont, 4h): 1.256
- logFC (Fold change), gene recF (ABUW_RS00015) (A. baumannii AB5075 [3]; H vs Cont, 4h): -1.096
- log2FC, gene ABUW_RS01945 (acyl-CoA thioesterase II) (A. baumannii AB5075 [3]; H vs Cont, 4h): -0.7138
- log2FC, gene ABUW_RS02545 (acyl-CoA thioesterase) (A. baumannii AB5075 [3]; H vs Cont, 4h): 0.6589
- log2FC, gene ABUW_RS05045 (acyl-CoA thioesterase) (A. baumannii AB5075 [3]; H vs Cont, 4h): 0.2411
- log2FC, gene ABUW_RS17575 (acyl-CoA thioesterase) (A. baumannii AB5075 [3]; H vs Cont, 4h): -2.464
- 4h_1h logFC (Differential gene expression for all genes), Geneid ABUW_RS00005 (A. baumannii AB5075 [3]; H): -0.3521
- 4h_1h logFC (Differential gene expression for all genes), Geneid ABUW_RS00010 (A. baumannii AB5075 [3]; H): 0.7488
- 4h_1h logFC (Differential gene expression for all genes), Geneid ABUW_RS00015 (A. baumannii AB5075 [3]; H): -1.211
- 4h_1h logFC (Differential gene expression for all genes), Geneid ABUW_RS00020 (A. baumannii AB5075 [3]; H): 0.2283
- logFC (Differential gene expression for all genes), Geneid ABUW_RS00005 (A. baumannii AB5075 [3]; L vs Cont, 1h): -0.03172
- logFC (Differential gene expression for all genes), Geneid ABUW_RS00020 (A. baumannii AB5075 [3]; L vs Cont, 1h): 0.1157
- logFC (Fold change), gene ABUW_RS00010 (A. baumannii AB5075 [3]; L vs Cont, 1h): -0.05024
- logFC (Fold change), gene ABUW_RS00030 (A. baumannii AB5075 [3]; L vs Cont, 1h): -0.1351
- logFC (Fold change), gene ABUW_RS00035 (A. baumannii AB5075 [3]; L vs Cont, 1h): -0.09136
- logFC (Fold change), gene recF (ABUW_RS00015) (A. baumannii AB5075 [3]; L vs Cont, 1h): -0.09027
- log2FC, gene ABUW_RS01945 (acyl-CoA thioesterase II) (A. baumannii AB5075 [3]; L vs Cont, 1h): 0.4895
- log2FC, gene ABUW_RS02545 (acyl-CoA thioesterase) (A. baumannii AB5075 [3]; L vs Cont, 1h): 0.2839
- log2FC, gene ABUW_RS05045 (acyl-CoA thioesterase) (A. baumannii AB5075 [3]; L vs Cont, 1h): -0.5862
- log2FC, gene ABUW_RS17575 (acyl-CoA thioesterase) (A. baumannii AB5075 [3]; L vs Cont, 1h): 0.3237
- logFC (Differential gene expression for all genes), Geneid ABUW_RS00005 (A. baumannii AB5075 [3]; L vs Cont, 4h): -0.01117
- logFC (Differential gene expression for all genes), Geneid ABUW_RS00020 (A. baumannii AB5075 [3]; L vs Cont, 4h): -0.1061
- logFC (Fold change), gene ABUW_RS00010 (A. baumannii AB5075 [3]; L vs Cont, 4h): 0.1057
- logFC (Fold change), gene ABUW_RS00030 (A. baumannii AB5075 [3]; L vs Cont, 4h): -0.4634
- logFC (Fold change), gene ABUW_RS00035 (A. baumannii AB5075 [3]; L vs Cont, 4h): 0.03384
- logFC (Fold change), gene recF (ABUW_RS00015) (A. baumannii AB5075 [3]; L vs Cont, 4h): -0.08717
- log2FC, gene ABUW_RS01945 (acyl-CoA thioesterase II) (A. baumannii AB5075 [3]; L vs Cont, 4h): 0.543
- log2FC, gene ABUW_RS02545 (acyl-CoA thioesterase) (A. baumannii AB5075 [3]; L vs Cont, 4h): -0.1794
- log2FC, gene ABUW_RS05045 (acyl-CoA thioesterase) (A. baumannii AB5075 [3]; L vs Cont, 4h): 0.3247
- log2FC, gene ABUW_RS17575 (acyl-CoA thioesterase) (A. baumannii AB5075 [3]; L vs Cont, 4h): -0.8383
- 4h_1h logFC (Differential gene expression for all genes), Geneid ABUW_RS00005 (A. baumannii AB5075 [3]; L): -0.3028
- 4h_1h logFC (Differential gene expression for all genes), Geneid ABUW_RS00010 (A. baumannii AB5075 [3]; L): -0.2642
- 4h_1h logFC (Differential gene expression for all genes), Geneid ABUW_RS00015 (A. baumannii AB5075 [3]; L): -0.2929
- 4h_1h logFC (Differential gene expression for all genes), Geneid ABUW_RS00020 (A. baumannii AB5075 [3]; L): 0.3892
